In patent EP1948196B1, “USE OF TETRAORGANOSILICON COMPOUNDS” (Salama, Zoser B., priority 2005, dated 2007):
pIC50: −log10 of the molar value. ≈ marks a conversion by molar mass, not a printed value. Read-outs that look alike come from different tables or passages of the source. Numbered stars: 1 amine (or outer) side, 2 acyl side, 3 side chain; on linkers, the order of the positions; unused ones are H or OH. Bridge positions count the residues as written; N and C are the ends. Peptide text beside a SMILES is read from it. I, II: the chains in the order shown. X2 = c1ccc([Si](O[*:1])(O[*:2])c2ccccc2)cc1

Columns and labels:
Angiosarkome = test: Effect on angiosarcomas
Lymphome = test: Effect on lymphomas
[1] = tested on: BxPC3 (pankreatisches Adenokarzinom); test: MTT test, triplicate, two-fold dilutions; format: cell-based; settings: Homo sapiens
Method: (§1) Die Silan wurden in Ethanol aufgelöst und in Zellkulturmedien in Konzentrationen von bis zu 500 µg/ml resuspendiert. Es wurden MTT Tests in dreifacher Ausführung durchgeführt, für welche doppelte Lösungen (7 Schritte) und colo205 (Kofon-Karzinom), BxPC3 (pankreatisches Adenokarzinom) sowie T47D (Brustkrebs) benutzt wurden.

T47D (Brustkrebs) = test: MTT test, triplicate, two-fold dilutions; format: cell-based; settings: Homo sapiens, T47D, read-out: IC50 T47D
Method: as §1

colo205 (Kofon-Karzinom) = test: MTT test, triplicate, two-fold dilutions; format: cell-based; settings: Homo sapiens
Method: as §1

Osteosarkome = test: Effect on osteosarcomas
Maus = test: Pharmacological observation in the mouse (central, vegetative and toxic effects, acute toxicity); format: in vivo; settings: for oLD (orienberende letale Dosis): mouse, in vivo
Description: Pharmakologische Untersuchungen an der Maus
Die Verbindungen wurden an der Maus auf zentrale, vegetative und toxische Effekte geprüft. Durch systemische Einzelbeobachtungen sind neben der akuten Toxizität (orienberende letale Dosis, oLD) zentrale und vegetative Wirkungen der Testsubstanzen, insbesondere Effekte auf die Motorik und das Reaktionsvermögen, die Haut- und Rektaltemperatur sowie auf die Pupillenmotorik erfasst worden. Die getesteten Dosierungen betrugen 5 •10^-4, 1 • 10^-3 und 5 • 10^-3 mol/kg Körpergewicht Letale Wirkungen konnten bei keiner der Verbindungen beobachtet werden. Die oLD lag für Di(tetradecanoyloxy)dimethylsilan und Di(octadecanoyloxy)dimethylsilan unter 1 • 10^-3 mol/kg Körpergewicht für alle übrigen Verbindungen unter 5 • 10^-3 mollkg Körpergewicht.

[2] = tested on: Kälber-Aortenendothelzellinie BKEz-7; test: tissue or blood; format: cell-based; settings: for pIC50: suspensions, 48 Stunden bei 37°C
Description: Prüfung auf zytotoxisches Potential an Kälber-Aortenendothelzellinie BKEz-7
Als Marker für eine zytotoxische Wirkung wird bei Zellen der charakterisierten Kälber-Aortenendothelzellinie BKEz-7 die Hemmkonzentration ermittelt, bei der eine 50%-ige Hemmung der Zellproliferation erfolgt (im Vergleich zu Kontrollkulturen ohne Zusatz eines Zellinhibitors). Die resultierende Reduzierung der Zellzahl um 50% wird als IC 50 ausgedrückt. Die getesteten Silanverbindungen wurden als Suspensionen auf die Kulturen gegeben und 48 Stunden bei 37°C inkubiert. Zusätzlich erfolgten morphologische Kontrollen und Vitalitätsbestimmungen mittels dem Neutralrot-Test. Mit Ausnahme des Di(dodecanoyloxy)dimethylsilans standen alle Ergebnisse der morphologischen Untersuchungen in guter Übereinstimmung. […]

Seminome = test: Effect on seminomas
Basalzellkarzinome = test: Effect on basal cell carcinomas
[3] = COLO 205, read-out: IC50 Colo205

With `CC[Si](CC)(OC(=O)CNC(=O)CNC(=O)CNC(=O)CNC(=O)CNC(=O)CN)OC(=O)CNC(=O)CNC(=O)CNC(=O)CNC(=O)CNC(=O)CN` [Diethyl bis(hexaglycyl)Silylester] the “Wirkung gegen Angiosarkome” value (Angiosarkome) was “zeigen eine Wirkung”.
With `CCCCCCCCCCCCCCCCC(=O)O[Si](OC(=O)CCCCCCCCCCCCCCCC)(C(C)C)C(C)C` [Di(heptadecanoyloxy)diisopropylsilan] the “Wirkung auf Lymphome” value (Lymphome) was “zeigen eine Wirkung”.
In the case of `CC(C)[C@H](N)C(=O)N[C@H](C(=O)N[C@H](C(=O)N[C@H](C(=O)N[C@H](C(=O)N[C@H](C(=O)N[C@H](C(=O)O[Si](OC(=O)[C@@H](NC(=O)[C@@H](NC(=O)[C@@H](NC(=O)[C@@H](NC(=O)[C@@H](NC(=O)[C@@H](NC(=O)[C@@H](N)C(C)C)C(C)C)C(C)C)C(C)C)C(C)C)C(C)C)C(C)C)(c1ccccc1)c1ccccc1)C(C)C)C(C)C)C(C)C)C(C)C)C(C)C)C(C)C` [Diphenyl bis(heptavalyl)silylester] (I: H-VVVVVVV / II: H-VVVVVVV; linker I:C-II:C via X2), the “Wirkung gegen Angiosarkome” value (Angiosarkome) was “zeigen eine Wirkung”.
In the case of `CC(C)[C@H](N)C(=O)N[C@H](C(=O)N[C@H](C(=O)N[C@H](C(=O)N[C@H](C(=O)O[Si](OC(=O)[C@@H](NC(=O)[C@@H](NC(=O)[C@@H](NC(=O)[C@@H](NC(=O)[C@@H](N)C(C)C)C(C)C)C(C)C)C(C)C)C(C)C)(c1ccccc1)c1ccccc1)C(C)C)C(C)C)C(C)C)C(C)C` [Diphenyl bis(pentavalyl)silylester], the “Wirkung gegen Angiosarkome” value (Angiosarkome) was “zeigen eine Wirkung”.
For `CCCCCCCCCCCCCCCCCC(=O)O[Si](OC(=O)CCCCCCCCCCCCCCCCC)(C(C)C)C(C)C` [Di(octadecanoyloxy)diisopropylsilan], the “Wirkung auf Lymphome” value (Lymphome) was “zeigen eine Wirkung”.
`CC(C)[C@H](N)C(=O)N[C@H](C(=O)N[C@H](C(=O)N[C@H](C(=O)N[C@H](C(=O)N[C@H](C(=O)N[C@H](C(=O)N[C@H](C(=O)O[Si](OC(=O)[C@@H](NC(=O)[C@@H](NC(=O)[C@@H](NC(=O)[C@@H](NC(=O)[C@@H](NC(=O)[C@@H](NC(=O)[C@@H](NC(=O)[C@@H](N)C(C)C)C(C)C)C(C)C)C(C)C)C(C)C)C(C)C)C(C)C)C(C)C)(c1ccccc1)c1ccccc1)C(C)C)C(C)C)C(C)C)C(C)C)C(C)C)C(C)C)C(C)C` [Diphenyl bis(octavalyl)silylester] (I: H-VVVVVVVV / II: H-VVVVVVVV; linker I:C-II:C via X2) was tested, and the “Wirkung gegen Angiosarkome” value (Angiosarkome) was “zeigen eine Wirkung”.
In the case of `CCCCCCCCCCCCC(=O)O[Si](CC)(CC)OC(=O)CCCCCCCCCCCC` [Si 6, Di (tridecanoyloxy) diethylsilan], the IC50 ([1]; BXPC-3, read-out: IC50 BxPC3) was 150 µg/mL (≈ 292 µM), the IC50 (T47D (Brustkrebs)) was 250 µg/mL (≈ 487 µM) and the IC50 (colo205 (Kofon-Karzinom); [3]) was 240 µg/mL (≈ 468 µM).
For `CCCCCCCC(=O)O[Si](C)(C)OC(=O)CCCCCCC` [Di(octanoyloxy)dimethylsilan], the “Wirkung auf Osteosarkome” value (Osteosarkome) was “zeigen eine Wirkung”.
With `CCCCCCCCCCCCCC(=O)O[Si](CC)(CC)OC(=O)CCCCCCCCCCCCC` [Si 14, Di (tetradecanoyloxy) diethylsilan] the IC50 ([1]; BXPC-3, read-out: IC50 BxPC3) was 70 µg/mL (≈ 129 µM), the IC50 (T47D (Brustkrebs)) was 65 µg/mL (≈ 120 µM) and the IC50 (colo205 (Kofon-Karzinom); [3]) was 250 µg/mL (≈ 462 µM).
For `CCCCCCCCCCCCCC(=O)O[Si](C)(C)OC(=O)CCCCCCCCCCCCC` [Di(tetradecanoyloxy)dimethylsilan], the “zentrale, vegetative und toxische Effekte (Verhaltensänderungen)” value (“zentrale … (Verhaltensänderungen)” below) (Maus; 1•10^-3 mol/kg) was “Ataxie”, the “zentrale … (Verhaltensänderungen)” value (Maus; 5•10^-4 mol/kg) was “schwache Ataxie, Piloerektion” and the “oLD (orienberende letale Dosis)” value (Maus) was < 1 • 10^-3 mol/kg Körpergewicht. The “Wirkung auf Osteosarkome” value (Osteosarkome) was “zeigen eine Wirkung”, the “Bedenkliche Toxizität” value [2] was “-” and the pIC50 [2] was 3.96.
With `CCCCC/C=C\C/C=C\CCCCCCCC(=O)O[Si](C)(C)OC(=O)CCCCCCC/C=C\C/C=C\CCCCC` [Di(linoylooxy)dimethylsilan] the “Wirkung auf Lymphome” value (Lymphome) was “zeigen eine Wirkung”.
With `CC/C=C\C/C=C\C/C=C\CCCCCCCC(=O)O[Si](C)(C)OC(=O)CCCCCCC/C=C\C/C=C\C/C=C\CC` [Di (lino-lenoylooxy)dimethylsilan] the “Wirkung auf Lymphome” value (Lymphome) was “zeigen eine Wirkung”.
`CCCCCCCCCC(=O)O[Si](C)(C)OC(=O)CCCCCCCCC` [Di(decanoyloxy)dimethylsilan] was tested, and the “zentrale … (Verhaltensänderungen)” value (Maus; 1•10^-3 mol/kg) was “Piloerektion”, the “zentrale … (Verhaltensänderungen)” value (Maus; 5•10^-3 mol/kg) was “schwach bis mäßig ausgeprägte Verhaltensänderung en” and the “zentrale … (Verhaltensänderungen)” value (Maus; 5•10^-4 mol/kg) was “keine Verhaltensänderungen”. The “Wirkung auf Osteosarkome” value (Osteosarkome) was “zeigen eine Wirkung”.
For `CCCCCCCCCC(=O)O[Si](CCC)(CCC)OC(=O)CCCCCCCCC` [Di(decanoyloxy)dipropylsilan], the “Wirkung auf Seminome” value (Seminome) was “zeigen eine Wirkung”.
With `C[C@H](N)C(=O)N[C@@H](C)C(=O)N[C@@H](C)C(=O)N[C@@H](C)C(=O)N[C@@H](C)C(=O)N[C@@H](C)C(=O)N[C@@H](C)C(=O)N[C@@H](C)C(=O)N[C@@H](C)C(=O)N[C@@H](C)C(=O)O[Si](OC(=O)[C@H](C)NC(=O)[C@H](C)NC(=O)[C@H](C)NC(=O)[C@H](C)NC(=O)[C@H](C)NC(=O)[C@H](C)NC(=O)[C@H](C)NC(=O)[C@H](C)NC(=O)[C@H](C)NC(=O)[C@H](C)N)(c1ccccc1)c1ccccc1` [Diphenyl bis(decaalanyl)silylester] the “Wirkung gegen Angiosarkome” value (Angiosarkome) was “zeigen eine Wirkung”.
For `CCCCCCCCC(=O)O[Si](C)(C)OC(=O)CCCCCCCC` [Di(nonanoyloxy)dimethylsilan], the “Wirkung auf Osteosarkome” value (Osteosarkome) was “zeigen eine Wirkung”.
In the case of `CCCCCCCCCCCCCCCCCC(=O)O[Si](C)(C)OC(=O)CCCCCCCCCCCCCCCCC` [Di(octadecanoyloxy)dimethylsilan], the “zentrale … (Verhaltensänderungen)” value (Maus; 1•10^-3 mol/kg) was “keine Verhaltensänderungen”, the “zentrale … (Verhaltensänderungen)” value (Maus; 5•10^-4 mol/kg) was “keine Verhaltensänderungen” and the “oLD (orienberende letale Dosis)” value (Maus) was < 1 • 10^-3 mol/kg Körpergewicht. The “Wirkung auf Osteosarkome” value (Osteosarkome) was “zeigen eine Wirkung”, the “Bedenkliche Toxizität” value [2] was “-” and the pIC50 [2] was 3.31.
In the case of `CCCCCCCCCCCCCCCC(=O)O[Si](OC(=O)CCCCCCCCCCCCCCC)(c1ccccc1)c1ccccc1` [Si 8, Di (hexadecanoyloxy) diphenylsilan], the “zentrale … (Verhaltensänderungen)” value (Maus; 1•10^-3 mol/kg) was “keine Verhaltensänderungen”, the “zentrale … (Verhaltensänderungen)” value (Maus; 5•10^-3 mol/kg) was “schwache Ataxie, Hyperaktivität und Piloerektion, Straubtail” and the “zentrale … (Verhaltensänderungen)” value (Maus; 5•10^-4 mol/kg) was “keine Verhaltensänderungen”. For the same compound, the “Wirkung auf Basalzellkarzinome” value (Basalzellkarzinome) was “zeigen eine Wirkung”, the IC50 ([1]; BXPC-3, up to 500 µg/ml, read-out: IC50 BxPC3) was 30 µg/mL (≈ 43.3 µM) and the IC50 (T47D (Brustkrebs); up to 500 µg/ml) was 20 µg/mL (≈ 28.9 µM). The IC50 (colo205 (Kofon-Karzinom); COLO 205, up to 500 µg/ml, read-out: IC50 Colo205) was 300 µg/mL (≈ 433 µM).
`CCCCCCCC/C=C\CCCCCCCC(=O)O[Si](C)(C)OC(=O)CCCCCCC/C=C\CCCCCCCC` was tested, and the “Wirkung auf Lymphome” value (Lymphome) was “zeigen eine Wirkung”.
With `CCCCC/C=C\C/C=C\CCCCCCCC(=O)O[Si](CC)(CC)OC(=O)CCCCCCC/C=C\C/C=C\CCCCC` [Di(linoylooxy)diethylsilan] the “Wirkung auf Lymphome” value (Lymphome) was “zeigen eine Wirkung”.
`CCCCCCCCCCC(=O)O[Si](CCC)(CCC)OC(=O)CCCCCCCCCC` [Di(undecanoyloxy) dipropylsilan] was tested, and the “Wirkung auf Seminome” value (Seminome) was “zeigen eine Wirkung”.
With `CCCCCCCC(=O)O[Si](OC(=O)CCCCCCC)(c1ccccc1)c1ccccc1` [Di(octanoyloxy)diphenylsilan] the “zentrale … (Verhaltensänderungen)” value (Maus; 1•10^-3 mol/kg) was “Ataxie, Hyper-aktivität”, the “zentrale … (Verhaltensänderungen)” value (Maus; 5•10^-3 mol/kg) was “schwache Ataxie, Hyperaktivität” and the “zentrale … (Verhaltensänderungen)” value (Maus; 5•10^-4 mol/kg) was “schwache Hyperaktivität”. For the same compound, the “Wirkung auf Basalzellkarzinome” value (Basalzellkarzinome) was “zeigen eine Wirkung”, the “Bedenkliche Toxizität” value [2] was “-” and the pIC50 [2] was < 4.70.
In the case of `CCCCCCCCCCCC(=O)O[Si](OC(=O)CCCCCCCCCCC)(c1ccccc1)c1ccccc1` [Di(dodecanoyloxy)diphenylsilan], the “zentrale … (Verhaltensänderungen)” value (Maus; 1•10^-3 mol/kg) was “keine Verhaltensänderungen”, the “zentrale … (Verhaltensänderungen)” value (Maus; 5•10^-3 mol/kg) was “keine Verhaltensänderungen” and the “zentrale … (Verhaltensänderungen)” value (Maus; 5•10^-4 mol/kg) was “keine Verhältensänderungen”. For the same compound, the “Wirkung auf Basalzellkarzinome” value (Basalzellkarzinome) was “zeigen eine Wirkung”, the “Bedenkliche Toxizität” value [2] was “-” and the pIC50 [2] was 4.44.
For `CCCCCCCCCC(=O)O[Si](OC(=O)CCCCCCCCC)(c1ccccc1)c1ccccc1` [Di(decanoyloxy)diphenylsilan], the “zentrale … (Verhaltensänderungen)” value (Maus; 1•10^-3 mol/kg) was “keine Verhaltensänderungen”, the “zentrale … (Verhaltensänderungen)” value (Maus; 5•10^-3 mol/kg) was “schwache Ataxie” and the “zentrale … (Verhaltensänderungen)” value (Maus; 5•10^-4 mol/kg) was “keine Verhaltensänderungen”. For the same compound, the “Wirkung auf Basalzellkarzinome” value (Basalzellkarzinome) was “zeigen eine Wirkung”, the “Bedenkliche Toxizität” value [2] was “-” and the pIC50 [2] was 4.85.
With `CCCCCCCCC(=O)O[Si](CCC)(CCC)OC(=O)CCCCCCCC` [Di(nonanoyloxy)dipropylsilan] the “Wirkung auf Seminome” value (Seminome) was “zeigen eine Wirkung”.
